In brackets after ≈: the same amount, converted by molar mass.
Legend:
[1] = tested on: Mycobacterium tuberculosis; assay: Antimycobacterial activity against Mycobacterium tuberculosis H37Rv by alamar blue assay; format: functional
[2] = Cytotoxicity against mouse RAW264.7 cells assessed as inhibition of cell growth at 25 ug/ml incubated for 48 hrs by MTT assay relative to control; format: toxicity, cell-based; conditions: at 25 µg/mL

SMILES	MIC [1]	inhibition at 48 h, 25 ug/ml [2]
CCc1cc(-c2nc(C)c(C(=O)OCc3cn(-c4cccc([N+](=O)[O-])c4)nn3)s2)ccn1	12.5 µg/mL (≈ 27.7 µM)	
O=C(O)c1cn(C2CC2)c2cc(N3CCNCC3)c(F)cc2c1=O [CIPROFLOXACIN]	1.56 µg/mL (≈ 4.71 µM)	
CCCc1cc(-c2nc(C)c(C(=O)OCc3cn(-c4cccc(Cl)c4)nn3)s2)ccn1	12.5 µg/mL (≈ 27.5 µM)	
CCc1cc(-c2nc(C)c(C(=O)OCc3cn(-c4ccc(C)c([N+](=O)[O-])c4)nn3)s2)ccn1	12.5 µg/mL (≈ 26.9 µM)	
CCCc1cc(-c2nc(C)c(C(=O)OCc3cn(-c4ccccc4)nn3)s2)ccn1	12.5 µg/mL (≈ 29.8 µM)	
CCCc1cc(-c2nc(C)c(C(=O)OCc3cn(-c4ccc(C)cc4)nn3)s2)ccn1	> 25 µg/mL	
CCCc1cc(-c2nc(C)c(C(=O)OCc3cn(-c4ccc(CC)cc4)nn3)s2)ccn1	1.56 µg/mL (≈ 3.49 µM)	27.2%
CCCc1cc(-c2nc(C)c(C(=O)OCc3cn(-c4cccc(OC)c4)nn3)s2)ccn1	6.25 µg/mL (≈ 13.9 µM)	25.7%
CCCc1cc(-c2nc(C)c(C(=O)OCc3cn(-c4ccccc4F)nn3)s2)ccn1	25 µg/mL (≈ 57.1 µM)	
CCc1cc(-c2nc(C)c(C(=O)OCc3cn(-c4ccc(Br)cc4)nn3)s2)ccn1	> 25 µg/mL	
CCc1cc(-c2nc(C)c(C(=O)OCc3cn(-c4ccccc4)nn3)s2)ccn1	25 µg/mL (≈ 61.7 µM)	
CCc1cc(-c2nc(C)c(C(=O)OCc3cn(-c4ccccc4Cl)nn3)s2)ccn1	25 µg/mL (≈ 56.8 µM)	
CCc1cc(-c2nc(C)c(C(=O)OCc3cn(-c4c(C)cc(C)cc4C)nn3)s2)ccn1	25 µg/mL (≈ 55.9 µM)	
CCc1cc(-c2nc(C)c(C(=O)OCc3cn(-c4ccc(C)cc4)nn3)s2)ccn1	25 µg/mL (≈ 59.6 µM)	
CCc1cc(-c2nc(C)c(C(=O)OCc3cn(-c4cccc(Cl)c4)nn3)s2)ccn1	25 µg/mL (≈ 56.8 µM)	
CCCc1cc(-c2nc(C)c(C(=O)OCc3cn(-c4ccc(Br)cc4)nn3)s2)ccn1	25 µg/mL (≈ 50.2 µM)	
CCc1cc(-c2nc(C)c(C(=O)OCc3cn(-c4ccc(C)cc4C)nn3)s2)ccn1	6.25 µg/mL (≈ 14.4 µM)	21.9%
CCCc1cc(-c2nc(C)c(C(=O)OCc3cn(-c4ccc(Cl)cc4)nn3)s2)ccn1	> 25 µg/mL	
CCc1cc(-c2nc(C)c(C(=O)OCc3cn(-c4ccc(Cl)cc4)nn3)s2)ccn1	25 µg/mL (≈ 56.8 µM)	
CCc1cc(-c2nc(C)c(C(=O)OCc3cn(-c4cccc(OC)c4)nn3)s2)ccn1	6.25 µg/mL (≈ 14.4 µM)	26%
CCc1cc(-c2nc(C)c(C(=O)OCc3cn(-c4ccccc4C)nn3)s2)ccn1	12.5 µg/mL (≈ 29.8 µM)	
CCc1cc(-c2nc(C)c(C(=O)OCc3cn(-c4ccccc4F)nn3)s2)ccn1	12.5 µg/mL (≈ 29.5 µM)	
CC[C@@H](CO)NCCN[C@@H](CC)CO [ETHAMBUTOL]	3.12 µg/mL (≈ 15.3 µM)	
CCc1cc(-c2nc(C)c(C(=O)OCc3cn(-c4ccccc4OC)nn3)s2)ccn1	> 25 µg/mL	
CCc1cc(-c2nc(C)c(C(=O)OCc3cn(-c4cccc(C)c4)nn3)s2)ccn1	6.25 µg/mL (≈ 14.9 µM)	30.1%
CCc1ccc(-n2cc(COC(=O)c3sc(-c4ccnc(CC)c4)nc3C)nn2)cc1	3.12 µg/mL (≈ 7.2 µM)	29.2%
CCc1cc(-c2nc(C)c(C(=O)OCc3cn(-c4ccc(OC)cc4)nn3)s2)ccn1	12.5 µg/mL (≈ 28.7 µM)	
CCCc1cc(-c2nc(C)c(C(=O)OCc3cn(-c4ccc(OC)cc4)nn3)s2)ccn1	> 25 µg/mL	
CCCc1cc(-c2nc(C)c(C(=O)OCc3cn(-c4cccc([N+](=O)[O-])c4)nn3)s2)ccn1	> 25 µg/mL	
